Source: patent US4794125A, “Compounds having an immunizing activity” (CL Pharma AG, priority 1984, dated 1988)

System: delayed-type hypersensitivity
Experiment: DTH test (delayed-type hypersensitivity in mice), topical sensitization with oxazolone
Assay type: in vivo
Details: dose 1.0 mg/kg; OF-1 mice; topical sensitization with ethanol oxazolone solution
Procedure: The compounds prepared in accordance with the invention were investigated using the DTH test (delayed-type hypersensitivity in mice) according to Dietrich, F. M. & Hess, R.: Hypersensitivity in mice.
The new compounds (2,6-bis-MAA=2,6-bis-/(methylamino)-acetylamino/-anthraquinone), CS-A=cyclosporin A, were tested in vivo in OF-1 mice by topical sensitization with antigen (ethanol oxazolone solution). The decrease in the inflammatory response versus untreated animals is expressed as % inhibition.

Structure (SMILES): CNCC(=O)Nc1ccc2c(c1)C(=O)c1ccc(NC(=O)CNC)cc1C2=O [2,6-bis-MAA, 2,6-bis-(methylamino)-acetylamino-anthraquinone]
- % Inhibition (decrease in the inflammatory response versus untreated animals): 35%
